# Experiments:
# [1] = system: Primary neonatal human epithelial keratinocytes (HEKs); assay: BrdU proliferation assay of HEKs with soluble QHREDGS peptide; type: cell-based; conditions: soluble peptide Low 100 μM, High 650 μM; 8 h BrdU
# Description: (§1) The effect of the QHREDGS peptide as in the soluble form was assessed on HEKs in vitro. 24- or 96-well plates were coated with 0.05 mg/mL type I collagen (BD Biosciences) in 0.02 N acetic acid overnight and then rinsed once with phosphate buffered saline (PBS) (Lonza). HEKs were seeded in complete EpiLife medium and attached for at least 2 h. 100 μM or 650 μM QHREDGS was supplemented to the EpiLife medium as Low or High dosage, respectively.
# HEKs were seeded at a density of 1×10^4 cells/cm^2 in collagen-coated 96-well plates. After 4 h, media was removed and replenished with EpiLife media supplemented with 20 μM bromodeoxyuridine (BrdU) (Sigma Aldrich) in the presence or absence of QHREDGS peptide. After incubating for 8 h, proliferating HEKs were identified by BrdU staining. Briefly, HEKs were fixed with 4% paraformaldehyde (PFA), permeablized with 0.25% triton X, treated with DNase for 30 min at 37° C., and blocked with 5% bovine serum albumin (BSA). The HEKs were then incubated with a rat anti-BrdU antibody (AbD Serotec) overnight at 4° C. followed by an anti-rat TRITC-labelled secondary antibody (Jackson Immuno Research). BrdU-positive cells were counted in 5 randomly chosen fields under 20× magnification and then normalized to the total number of cells labelled by 4′,6-diamidino-2-phenylindole (DAPI) counterstaining.
# HEKs [2] = assay: EarlyTox Cell Integrity assay after H2O2 treatment of HEKs with soluble QHREDGS peptide; type: cell-based, human; conditions: 500 μM H2O2 for 2 h; soluble peptide 100 μM / 650 μM, 2 h pre-conditioning
# Description: (§2) HEKs were seeded at a sub-confluent density in a 96-well plate for the cell integrity assay or a 24-well plate for Western blot analysis, and serum starved overnight. The HEKs were then pretreated with soluble QHREDGS (100 μM for Low and 650 μM for High) for 2 h. The cells were then exposed to fresh EpiLife basal medium supplemented with 500 μM H2O2 in the presence or absence of QHREDGS peptide. For the cell integrity assay, the cells were stained using the EarlyTox™ Cell Integrity kit (Molecular Devices) after 2 h of H2O2 treatment. For the Western analysis, another set of wells were seeded in parallel for the Ctrl, Low and High conditions and protein samples were collected after 0, 15 min and 2 h of H2O2 treatment.
# The EarlyTox™ Cell Integrity Kit (Molecular Devices, R8213) is based on two nuclear dyes: live red dye is cell permeant and marks both live and dead cells (Excitation: 622 nm/Emission: 645 nm); dead green dye is cell impermeant and stains only cells with damaged outer membranes (Excitation: 503 nm/Emission: 526 nm). […] The plate was then incubated at 37° C. for 30 min and imaged using a SpectraMax i3 plate reader (Molecular Devices). The percentage of viable cells after H2O2 treatment on chitosan-collagen films in the presence or absence of QHREDGS peptide was normalized to the viability percentage of non-treated controls on the same coating film condition.
# [3] = system: Akt and MAPKp42/44 phosphorylation; assay: Western blotting of HEKs under H2O2 stress with soluble QHREDGS peptide; type: cell-based, human; conditions: 500 μM H2O2, 15 min, soluble peptide 100 μM / 650 μM
# Description: as §2
# Protein was isolated from keratinocytes in the 24-well plate after H2O2 treatment using 60-80 μL Lysis Buffer per well (10× Cell Lysis Buffer, Cell Signaling Technology; complete Mini, EDTA-free protease inhibitor cocktail tablet, Roche; in ddH2O). Proteins were separated by electrophoresis in Novex Tris-Glycine gels (Life technologies) and transferred using the iBlot (Life technologies) to a PVDF iBlot Transfer Stack (Life technologies). Membranes were probed for phospho-p44/42 MAPK (pMAPKp42/44), p44/42 MAPK (MAPKp42/44), phospho-Akt, Akt, or GAPDH as a loading control (Millipore). All primary antibodies were purchased from Cell Signaling unless stated otherwise. […]
# HEKs [4] = assay: HEK migration on collagen coated surfaces with soluble QHREDGS peptide; type: cell-based, human; conditions: soluble peptide 100 μM or 650 μM; collagen-coated surface; 24 h
# Description: as §1
# Culture-inserts were purchased from Ibidi® and carefully placed on the chitosan-collagen films in 24-wells. HEKs were seeded in complete EpiLife medium at 0.3-0.4×10^6 cells/mL with 70-100 μL per chamber and allowed to attach for 2 h. The culture-inserts were then carefully lifted and the unattached HEKs were immediately removed by rinsing twice using warm PBS. Basal EpiLife medium was then added to the wells and the wells were imaged every 2 h for 8 h and the next day using the SpectraMax i3 plate reader. Confluent HEK monolayers were wounded (time 0) and maintained for 24 h in EpiLife basal medium with 0.12 mM Ca2+. The wounds were outlined and the area at the various time points was normalized to the initial wound size (time 0). After 24 h, HEKs were fixed with 4% paraformaldehyde.
substance,measurement,setting,value
QHREDGS [QHREDGS peptide],percentage of proliferating HEKs (BrdU incorporation),[1],not affected
same,percentage of viable HEKs under oxidative stress,HEKs [2],significant dose-dependent increase
same,phosphorylation of Akt and MAPKp42/44,[3],increased the phosphorylation of Akt and MAPKp42/44 and the increase was dose-dependent
same,HEK migration rate,HEKs [4],No significant difference

# Source: patent US20230233704A1, “HYDROGEL COMPOSITION AND ASSOCIATED METHOD OF USE” (Quthero, Inc., priority 2017, published 2023)
